Data reported in paper PMC4266648, “Metabolism of Skin-Absorbed Resveratrol into Its Glucuronized Form in Mouse Skin” (PLoS ONE, 2014).
Entries after “also recorded” stand apart in the source; their conditions may differ. Values belong to the compound of their own block, whether it stands above or below them.

Experiments:
[1] = tested on: HaCaT (human keratinocytes); assay: RESV metabolism in cell culture (LC-MS), HaCaT; details: 20 or 200 µM RESV, 4 h
Protocol: (§1) Cells were maintained in Dulbecco’s Modified Eagle Medium (DMEM) with 1% penicillin/streptomycin and 2 mM L-glutamine with some modifications as follows; DMEM (1.0 g/L glucose) with 10% fetal calf serum (FCS) for HepG2; DMEM (4.5 g/L glucose) with 10% FCS for HaCaT; DMEM (4.5 g/L glucose) with 20% FCS for C2C12. C2C12 cells were differentiated into myotubes by switching medium into DMEM containing 2% horse serum. Cells were plated on a 10 cm dish and allowed to adhere for 18 h. […] After 4 h incubation, cells were washed with PBS twice, followed by addition of 2 mL 50% ice-cold methanol. Collected cells were transferred into tubes on ice and further processed as described in metabolome sample preparation section.
(§2) After addition of internal standards (10 nmol HEPES and PIPES) to metabolome samples and brief vortexing, samples were transferred to Amicon Ultra 10 kDa cut-off filters (Millipore, Billerica, MA, USA) to remove proteins. […]
(§3) LC-MS data were obtained using a Paradigm MS4 HPLC system (Michrom Bioresources, Auburn, CA, USA) coupled to an LTQ Orbitrap mass spectrometer (Thermo Fisher Scientific, Waltham, MA, USA), as described previously [38]. […] Peak areas of metabolites of interest were measured using the MZmine 2.10 software [39] and normalized using the peak areas of HEPES and PIPES, as described in S2 Table.

[2] = tested on: HepG2 (human hepatoblastoma cells); assay: RESV metabolism in cell culture (LC-MS), HepG2; details: HepG2, 20 or 200 µM RESV, 4 h
Protocol: as §1, §2, §3

C2C12 (mouse myoblasts) = assay: RESV metabolism in cell culture (LC-MS), C2C12; details: C2C12, 20 or 200 µM RESV, 4 h
Protocol: as §1, §2, §3

[3] = Distribution of RESV metabolites in mouse tissues after oral and dermal administration (LC-MS); format: in vivo, mouse; details: for Tissue distribution of metabolite: hairless mice, 4 h after 1 mg RESV, both oral and skin administration
Protocol: Mice were separated from each other and could not lick RESV from their dorsal skin.
Mice were anesthetized with pentobarbital and blood was collected from the right ventricle. For metabolite extraction 0.2 mL of blood were mixed with 1.8 mL 55% methanol, pre-chilled to −40°C and kept until further processing as described in the metabolome sample preparation section. In addition to blood, metabolome samples were prepared from liver, dorsal skin, leg skin, and hind limb muscle.
Around 100 mg of each mouse tissue was dissected and weighed. Tissues were minced and homogenized for 3 min in 500 µL 50% methanol on ice using a BioMasher II (Nippi, Tokyo, Japan). Next, 1 mL 50% methanol and internal standards (10 nmol 4-(2-hydroxyethyl)-1-piperazineethanesulfonic acid (HEPES) and piperazine-N,N’-bis(2-ethanesulfonic acid) (PIPES)) were added to the samples. HEPES and PIPES were used as internal standards to correct for the variation of sample preparation and different detection efficiency. After brief vortexing, samples were centrifuged at 500 g for 10 min at 4°C. Supernatant was recovered for further processing as described in the metabolome sample preparation section (without the repeated addition of internal standards and vortexing).
Metabolome sample preparation was previously described.
Peaks were assigned to metabolites based upon their retention times and m/z values. Compounds were confirmed with standards (STD) or with analysis of MS/MS spectra (MS/MS), if no standard was available. In cases where no standard compound or MS/MS spectrum was available, compounds were identified by generating chemical formulae using m/z values in MZmine 2.10 module and given MS status. Data were analyzed using the scatter plot function built into MZmine 2.10 software, as well as by exporting the data to a spreadsheet.

TPA-induced ear edema = assay: TPA-induced ear edema; format: in vivo, mouse; details: for Ear thickness: 24 h after 1 µg TPA, before TPA 0.22 mm, TPA control 0.30 mm, female C57BL/6 mice
Protocol: The ear edema model was employed as previously described. Briefly, 1 µg 12-O-Tetradecanoylphorbol-13-acetate (TPA) was applied to the right ear of female C57BL/6 mice. Edema was evaluated by measuring ear thickness and ear weight. […] Ear thickness was measured with a micrometer before and 24 h after TPA treatment. After sacrificing mice with CO2, ear punch biopsies (6 mm diameter) were weighed.

[4] = RESV-treated mouse samples, LC-MS negative ionization mode

- Detection of metabolite (normalized peak area) in cells treated with RESV [1]: detected
- Detection of metabolite (normalized peak area) in cells treated with RESV [2]: detected
- Detection of metabolite (normalized peak area) in cells treated with RESV (C2C12 (mouse myoblasts)): detected
Compound: O=C(O)[C@H]1O[C@@H](Oc2cc(O)cc(/C=C\c3ccc(O)cc3)c2)[C@H](O)[C@@H](O)[C@@H]1O (relative stereo) [cis-RESV-3-O-GLUC, cis-Resveratrol-3-O-glucuronide]

- Detection of metabolite in mouse and cell culture samples ([3]; mouse, in vivo): barely detected
Compound: O=C(O)[C@H]1O[C@@H](Oc2ccc(/C=C\c3cc(O)cc(O)c3)cc2)[C@H](O)[C@@H](O)[C@@H]1O (relative stereo) [cis-RESV-4-O-glucuronide, cis-resveratrol-4-O-glucuronide]

- Detection of metabolite (normalized peak area) in cells treated with RESV [1]: detected
- Detection of metabolite (normalized peak area) in cells treated with RESV [2]: detected
- Detection of metabolite (normalized peak area) in cells treated with RESV (C2C12 (mouse myoblasts)): detected
Compound: O=C(O)[C@H]1O[C@@H](Oc2cc(O)cc(/C=C/c3ccc(O)cc3)c2)[C@H](O)[C@@H](O)[C@@H]1O (relative stereo) [trans-RESV-3-O-GLUC, trans-resveratrol-3-O-glucuronide]

- Detection of metabolite in mouse and cell culture samples ([3]; mouse, in vivo): barely detected
Compound: O=C(O)[C@H]1O[C@@H](Oc2ccc(/C=C/c3cc(O)cc(O)c3)cc2)[C@H](O)[C@@H](O)[C@@H]1O (relative stereo) [trans-RESV-4-O-glucuronide, trans-resveratrol-4-O-glucuronide]

Compound: Oc1ccc(/C=C/c2cc(O)cc(O)c2)cc1 [RESV, trans-resveratrol]
- Ear weight (TPA-induced ear edema; 6 mm ear punch 24 h after TPA, 1 mg RESV oral, TPA-treated mice 9.4 mg): 8.1 mg
- Ear thickness (TPA-induced ear edema; 1 mg RESV applied topically to ear 30 min after TPA): 0.21 mm
- Ear thickness (TPA-induced ear edema; 1 mg RESV orally 30 min after TPA): 0.26 mm

Compound: Dihydroresveratrol- glucuronide [DH-RESV-GLUC]
- Tissue distribution of metabolite [3]: detected in blood and liver as well as at lower levels in skin and muscle

Compound: Dihydroresveratrol- sulfoglucuronide [DH-RESV-SULF-GLUC]
- Reports and comments: samples in which the metabolite was detected [3, 4]: Detected in mouse liver samples

Compound: Dihydroresveratrol-sulfate [DH-RESV-SULF]
- Tissue distribution of metabolite [3]: detected mainly in liver and blood; also recorded: barely detectable in dorsal and leg skin, and muscle

- Reports and comments: samples in which the metabolite was detected ([3]; mouse, in vivo): Detected in mouse skin samples
Compound: Resveratrol-diglucuronide [RESV-DIGLUC]

Compound: Resveratrol-disulfate [RESV-DISULF]
- Reports and comments: samples in which the metabolite was detected [3, 4]: Detected in mouse blood and liver samples

Compound: Resveratrol-sulfoglucuronide [RESV-SULF-GLUC]
- Reports and comments: samples in which the metabolite was detected ([3]; mouse, in vivo): Azorin-Ortuno et al 2011 [4] (MS/MS data) Detected in blood mouse blood samples
